Patent US20230303497A1, “BENZYLAMINE OR BENZYL ALCOHOL DERIVATIVE AND USES THEREOF” (CHENGDU HYPERWAY PHARMACEUTICALS CO., LTD, priority 2020, published 2023)
Read-outs that look alike come from different tables or passages of the source.

Biological target: human NaV1.8 ion channel (Homo sapiens (Human), UniProt Q9Y5Y9)
Assay: Compound inhibition activity on human NaV1.8 ion channel in HEK293 cells (whole-cell patch clamp)
Assay type: cell-based
Settings: 100 nm concentration, HEK293 cells, resting protocol
Protocol: Test Case 1: Compound Inhibition Activity on Human NaV1.8 Ion Channel in HEK293 Cells
The final concentrations of the test compounds are prepared on the same day and then dissolved in extracellular solution. […] The intracellular solution (mM) contains: Aspartic acid, 140; MgCl2, 2; EGTA 11; HEPES, 10; pH 7.2 (CsOH titration). All test solutions contain 1 μM TTX.
The test solution are stored at a concentration of 3 mM in dimethyl sulfoxide (DMSO). The solutions will be dissolved in extracellular solution on the day of testing and prepared to the required concentration.
All experiments were performed at room temperature. Each cell itself is taken as the corresponding control.
At least one cell is tested per concentration.
HEK293 cell steady expressing NaV1.8 ion channel.
The intracellular fluid (mM) contains: Aspartic acid, 140; MgCl2, 2; EGTA 11; HEPES, 10; pH 7.2 (CsOH titration). […] Electrodes are drawn with PC-10 (Narishige, Japan). Recording is performed with whole-cell diaphragm clamp.
The cells are clamped at −80 mV and then depolarized to 10 mV with a sustained 10 ms square wave to give a Nav1.8 current. This procedure is repeated every 5 seconds.

[1] = read-out: Inhibition ratio of Nav1.8 (Activity of inhibition)
[2] = read-out: Inhibition ratio of compounds against Nav1.8 (Activity of inhibition)

human NaV1.8 ion channel, sequence (Q9Y5Y9 whole entry): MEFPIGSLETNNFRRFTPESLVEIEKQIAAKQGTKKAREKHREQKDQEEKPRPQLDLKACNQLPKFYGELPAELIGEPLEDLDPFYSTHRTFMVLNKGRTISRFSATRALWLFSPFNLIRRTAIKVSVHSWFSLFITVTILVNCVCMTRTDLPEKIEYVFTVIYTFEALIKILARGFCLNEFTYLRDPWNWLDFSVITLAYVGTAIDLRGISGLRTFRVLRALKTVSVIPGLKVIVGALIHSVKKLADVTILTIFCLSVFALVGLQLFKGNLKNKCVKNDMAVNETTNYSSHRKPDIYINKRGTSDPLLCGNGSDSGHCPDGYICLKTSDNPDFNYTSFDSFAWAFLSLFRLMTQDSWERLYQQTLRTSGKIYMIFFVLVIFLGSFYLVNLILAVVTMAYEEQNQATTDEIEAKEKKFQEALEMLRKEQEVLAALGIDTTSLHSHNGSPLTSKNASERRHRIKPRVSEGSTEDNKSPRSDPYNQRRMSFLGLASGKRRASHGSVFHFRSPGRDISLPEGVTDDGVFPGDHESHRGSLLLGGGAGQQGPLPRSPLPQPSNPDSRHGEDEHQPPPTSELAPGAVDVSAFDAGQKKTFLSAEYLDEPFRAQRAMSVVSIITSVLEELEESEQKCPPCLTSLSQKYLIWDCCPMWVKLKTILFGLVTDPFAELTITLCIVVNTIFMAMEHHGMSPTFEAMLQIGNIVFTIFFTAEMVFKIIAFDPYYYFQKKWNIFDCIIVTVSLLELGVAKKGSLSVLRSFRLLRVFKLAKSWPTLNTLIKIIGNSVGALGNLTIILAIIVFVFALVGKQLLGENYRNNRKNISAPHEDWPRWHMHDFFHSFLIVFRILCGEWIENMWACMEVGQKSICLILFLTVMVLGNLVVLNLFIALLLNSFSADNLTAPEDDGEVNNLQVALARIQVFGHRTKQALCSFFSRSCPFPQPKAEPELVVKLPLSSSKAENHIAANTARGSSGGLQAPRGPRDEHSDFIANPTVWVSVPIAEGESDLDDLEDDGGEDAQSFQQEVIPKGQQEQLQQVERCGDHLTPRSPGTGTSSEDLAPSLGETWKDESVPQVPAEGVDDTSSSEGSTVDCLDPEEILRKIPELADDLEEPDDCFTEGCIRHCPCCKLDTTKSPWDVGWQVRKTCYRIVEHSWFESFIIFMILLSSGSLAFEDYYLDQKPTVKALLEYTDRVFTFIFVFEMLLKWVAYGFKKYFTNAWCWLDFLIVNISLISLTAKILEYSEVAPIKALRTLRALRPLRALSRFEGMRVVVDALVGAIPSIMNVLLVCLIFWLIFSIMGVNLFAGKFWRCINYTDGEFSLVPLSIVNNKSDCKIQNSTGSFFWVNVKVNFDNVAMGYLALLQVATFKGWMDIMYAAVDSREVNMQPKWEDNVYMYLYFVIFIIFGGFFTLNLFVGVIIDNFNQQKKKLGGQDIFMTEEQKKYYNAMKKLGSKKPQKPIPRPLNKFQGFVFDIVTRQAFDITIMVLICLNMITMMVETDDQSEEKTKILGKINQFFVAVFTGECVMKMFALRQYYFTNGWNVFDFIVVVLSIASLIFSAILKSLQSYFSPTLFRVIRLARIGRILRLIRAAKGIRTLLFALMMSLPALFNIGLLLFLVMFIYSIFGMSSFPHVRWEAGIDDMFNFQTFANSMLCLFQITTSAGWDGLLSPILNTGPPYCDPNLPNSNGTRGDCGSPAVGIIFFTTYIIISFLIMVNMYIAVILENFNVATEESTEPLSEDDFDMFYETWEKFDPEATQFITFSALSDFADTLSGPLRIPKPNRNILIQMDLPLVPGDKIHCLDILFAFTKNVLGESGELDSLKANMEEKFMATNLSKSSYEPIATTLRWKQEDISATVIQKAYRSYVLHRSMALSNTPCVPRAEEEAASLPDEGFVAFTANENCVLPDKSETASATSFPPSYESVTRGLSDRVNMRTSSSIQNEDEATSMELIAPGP

Cc1cc(F)ccc1Oc1cc(C2CC2)c(C(F)(F)F)cc1C(=O)Nc1ccc(F)c(C(F)(F)C(=O)NCCO)c1 [Example 33, 4-Cyclopropyl-N-(3-(1,1-difluoro-2-((2-hydroxyethyl)amino)-2-oxoethyl)-4-fluorophenyl)-2-(4-fluoro-2-methylphenoxy)-5-(trifluoromethyl) benzamide]
inhibition at 0.1 µM [1]: < 20%

Cc1cc(F)ccc1Oc1cc(C2CC2)c(C(F)(F)F)cc1C(=O)Nc1ccc(F)c(OCCN)c1 [Example 34, N-(3-(2-aminoethoxy)-4-fluorophenyl)-4-cyclopropyl-2-(4-fluoro-2-methylphenoxy)-5-(trifluoromethyl) benzamide]
inhibition at 0.1 µM [1]: 50 to 80%

Cc1cc(F)ccc1Oc1cc(C2CC2)c(C(F)(F)F)cc1C(=O)Nc1ccnc(C(N)CC(N)=O)c1 (centres unmarked) [Example 35]
inhibition at 0.1 µM [1]: > 80%

Cc1cc(F)ccc1Oc1cc(C2CC2)c(C(F)(F)F)cc1C(=O)Nc1ccc(F)c(C(N)CC(N)=O)c1 (centres unmarked) [Example 37]
inhibition at 0.1 µM [1]: > 80%

Cc1cc(F)ccc1Oc1cc(C(F)(F)F)ccc1C(=O)Nc1ccc(F)c(C(N)CC(N)=O)c1 (centres unmarked) [Example 39]
inhibition at 0.1 µM [1]: > 80%

Cc1cc(F)ccc1Oc1ccc(C(F)(F)F)cc1C(=O)Nc1ccnc(CN)c1 [Example 40]
inhibition at 0.1 µM [1]: 50 to 80%

Cc1cc(F)ccc1Oc1cc(C(F)(F)F)ccc1C(=O)Nc1ccc(F)c(C(N)C(N)=O)c1 (centres unmarked) [Example 41]
inhibition at 0.1 µM [1]: > 80%

CNC(=O)C(N)c1cc(NC(=O)c2ccc(C(F)(F)F)cc2Oc2ccc(F)cc2C)ccc1F (centres unmarked) [Example 42]
inhibition at 0.1 µM [1]: > 80%

Cc1cc(F)ccc1Oc1cc(C2CC2)c(C(F)(F)F)cc1C(=O)Nc1ccc(F)c(C(N)C(=O)NCCO)c1 (centres unmarked) [Example 43]
inhibition at 0.1 µM [1]: 50 to 80%

COCCNC(=O)C(N)c1cc(NC(=O)c2cc(C(F)(F)F)c(C3CC3)cc2Oc2ccc(F)cc2C)ccc1F (centres unmarked) [Example 44]
inhibition at 0.1 µM [1]: 50 to 80%

Cc1cc(F)ccc1Oc1cc(C2CC2)c(C(F)(F)F)cc1C(=O)Nc1ccc(F)c(C(N)CC(C)N)c1 (centres unmarked) [Example 46, 4-Cyclopropyl-N-(3-(1,3-diaminobutyl)-4-fluorophenyl)-2-(4-fluoro-2-methylphenoxy)-5-(trifluoromethyl) benzamide]
inhibition at 0.1 µM [2]: > 80%

Cc1cc(F)ccc1Oc1cc(C2CC2)c(C(F)(F)F)cc1C(=O)Nc1ccc(F)c(C(F)CN)c1 (centres unmarked) [Example 47, N-(3-(2-Amino-1-fluoroethyl)-4-fluorophenyl)-4-cyclopropyl-2-(4-fluoro-2-methylphenoxy)-5-(trifluoromethyl) benzamide]
inhibition at 0.1 µM [2]: 50 to 80%

Cc1cc(F)ccc1Oc1cc(C2CC2)c(C(F)(F)F)cc1C(=O)Nc1ccc(F)c(C(C)CC(N)=O)c1 (centres unmarked) [Example 48, N-(3-(4-Amino-4-oxobutan-2-yl)-4-fluorophenyl)-4-cyclopropyl-2-(4-fluoro-2-methylphenoxy)-5-(trifluoromethyl) benzamide]
inhibition at 0.1 µM [2]: > 80%

Cc1cc(F)ccc1Oc1cc(C2CC2)c(C(F)(F)F)cc1C(=O)Nc1ccc(F)c(C(CCO)n2ccnc2)c1 (centres unmarked) [Example 49, 4-Cyclopropyl-2-(4-fluoro-2-methylphenoxy)-N-(4-fluoro-3-(3-hydroxy-1-(1H-imidazol-1-yl)propyl)phenyl)-5-(trifluoromethyl) benzamide]
inhibition at 0.1 µM [2]: 50 to 80%

Cc1cc(F)ccc1Oc1cc(C2CC2)c(C(F)(F)F)cc1C(=O)Nc1ccc(F)c(C2CCNC(=O)CN2)c1 (centres unmarked) [Example 50]
inhibition at 0.1 µM [2]: 20 to 50%

Cc1cc(F)ccc1Oc1cc(C2CC2)c(C(F)(F)F)cc1C(=O)Nc1ccc(F)c(C2CCNC(=O)N2)c1 (centres unmarked) [Example 51, 4-Cyclopropyl-2-(4-fluoro-2-methylphenoxy)-N-(4-fluoro-3-(2-oxohexahydropyrimidin-4-yl)phenyl)-5-(trifluoromethyl) benzamide]
inhibition at 0.1 µM [2]: > 80%

Cc1cc(F)ccc1Oc1cc(C2CC2)c(C(F)(F)F)cc1C(=O)Nc1ccc(F)c(N)c1 [Example 52, N-(3-Amino-4-fluorophenyl)-4-cyclopropyl-2-(4-fluoro-2-methylphenoxy)-5-(trifluoromethyl) benzamide]
inhibition at 0.1 µM [2]: 50 to 80%
